Measured values reported in patent publication US9023789B2, “Amylin analogs and pharmaceutical compositions thereof” (Novo Nordisk A/S, priority 2012, dated 2015).
In brackets after ≈: the same amount, converted by molar mass. Where two headings read alike, the source gives them in different places. Numbered stars: 1 amine (or outer) side, 2 acyl side, 3 side chain; on linkers, the order of the positions; unused ones are H or OH. Bridge positions count the residues as written; N and C are the ends. Side chains are listed from the residue outwards. Peptide text beside a SMILES is read from it. * marks the point of attachment. C20 diacid = O=C(O)CCCCCCCCCCCCCCCCCCC(=O)*; γGlu = O=C(O)[C@H](CCC(=O)[*:2])N[*:1]

Tests used:
[1] = biological target: T1, rat amylin receptor (rat calcitonin receptor + rat RAMP 3) (Rattus norvegicus, UniProt P32214+Q9JJ73); assay: ASSAY (VI) binding to the rat amylin receptor; settings: for IC50: binding to rat amylin receptor, read-out: rAmylin-R bind IC50
T1 construct: expressed in transfected cells; host or cells: BHK tk'ts 13 (transient, FuGENE 6), membranes
T1 sequence (P32214 25-479 isoform P32214-2 limits assumed): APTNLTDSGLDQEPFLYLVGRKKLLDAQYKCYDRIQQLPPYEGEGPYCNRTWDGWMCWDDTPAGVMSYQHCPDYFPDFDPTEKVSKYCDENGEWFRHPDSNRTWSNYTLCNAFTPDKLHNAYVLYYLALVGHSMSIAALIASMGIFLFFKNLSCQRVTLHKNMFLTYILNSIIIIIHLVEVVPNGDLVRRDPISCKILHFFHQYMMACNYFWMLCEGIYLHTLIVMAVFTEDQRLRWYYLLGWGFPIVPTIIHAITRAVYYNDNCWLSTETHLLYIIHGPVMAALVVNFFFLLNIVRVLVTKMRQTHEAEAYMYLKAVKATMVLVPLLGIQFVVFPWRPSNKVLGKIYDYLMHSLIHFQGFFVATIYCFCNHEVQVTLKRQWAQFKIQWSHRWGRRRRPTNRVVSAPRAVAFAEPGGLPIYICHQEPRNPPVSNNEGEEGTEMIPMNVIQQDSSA
T1 sequence (Q9JJ73 23-147 partner): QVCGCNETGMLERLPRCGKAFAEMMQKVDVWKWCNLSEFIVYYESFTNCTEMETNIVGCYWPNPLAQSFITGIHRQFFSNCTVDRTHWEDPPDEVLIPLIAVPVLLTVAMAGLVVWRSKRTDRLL
Method in brief: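 The cell-membrane assay assessed binding at the rat amylin receptor. BHK tk′ts 13 cells were transfected transiently with rat calcitonin receptor, with FuGENE® 6 (Roche) as the transfection reagent, used per the manufacturer's recommendations. Approximately 48 hours after transfection the cells were harvested, and membranes were prepared for measuring binding.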

[2] = biological target: T2, human amylin receptor (membranes from Amylin 3(a)/CRE-luc cells) (Homo sapiens, UniProt O60896+P30988); assay: ASSAY (V) binding to the human amylin receptor (SPA, 125I-rat amylin); settings: for IC50: Table 4, read-out: hAmylin-R bind IC50;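 on all read-outs here: competition binding of cell membranes (35 ng/µL) mixed with SPA beads in 384-well plates at 40 µL total volume, read by scintillation counting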
T2 construct: expressed in transfected cells
T2 sequence (P30988 25-474): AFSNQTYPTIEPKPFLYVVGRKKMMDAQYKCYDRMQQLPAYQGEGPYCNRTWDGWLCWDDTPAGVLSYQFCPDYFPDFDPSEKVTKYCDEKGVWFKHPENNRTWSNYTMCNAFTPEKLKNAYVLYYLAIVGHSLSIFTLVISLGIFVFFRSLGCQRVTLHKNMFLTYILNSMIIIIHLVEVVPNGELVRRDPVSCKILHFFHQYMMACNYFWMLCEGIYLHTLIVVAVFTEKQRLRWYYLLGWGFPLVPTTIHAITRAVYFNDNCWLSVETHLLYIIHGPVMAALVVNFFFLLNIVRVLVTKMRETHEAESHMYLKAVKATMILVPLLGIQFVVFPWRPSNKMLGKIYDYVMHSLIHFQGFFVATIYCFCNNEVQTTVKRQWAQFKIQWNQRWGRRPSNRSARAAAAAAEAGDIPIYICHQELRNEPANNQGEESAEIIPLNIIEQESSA
T2 sequence (O60896 24-148 partner): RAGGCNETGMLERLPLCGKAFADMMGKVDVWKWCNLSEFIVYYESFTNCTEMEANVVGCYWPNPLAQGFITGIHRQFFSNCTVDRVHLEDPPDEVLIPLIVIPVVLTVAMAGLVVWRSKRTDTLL
Method: The binding assay was performed using scintillation proximity assay (SPA) beads (RPNQ0001) from PerkinElmer and cell membranes from the Amylin 3(a)/CRE-luc cells (as described in Assay (II)) were used. Membranes were prepared in the following way; the cells were rinsed with PBS and incubated with Versene for approximately 5 min before harvesting. The cells were flushed with PBS and the cell-suspension was centrifuged for 5 min at 1000 rpm. […] The resulting pellet was resuspended in buffer 2 and protein concentration was measured (BCA protein Assay, Pierce). The homogenate was kept cold during the whole procedure. The membranes were kept at −80° C. until use. The assay was performed in a 384 well Optiplate (PerkinElmer) in a total volume of 40 ul. Membranes were mixed with SPA beads. Final concentration of membranes 35 ng/μL final and SPA beads was 0.05 mg/well. Test-compounds were dissolved in DMSO and further diluted in assay buffer (50 mM Hepes, pH 7.4, 1 mM CaCl2, 5 mM MgCl2, 0.1% OA and 0.02% Tween20). […] Samples were analyzed on TopCounter™ (Packard). The IC50 was calculated using (one site binding competition analysis) GraphPad Prism5 as a measure of receptor affinity.

[3] = ASSAY (IV) determination of solubility; assay type: physicochemical
Method in brief: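 Solubility measured by UPLC of supernatant after centrifugation, following 18 h at room temperature. Peptide ([…] in water) was diluted 1:1 into 100 mM glycylglycine (pH 3.0, 4.0, 5.0) or bistrispropane (pH 6.0-8.0).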

[4] = biological target: T3, rat calcitonin receptor (Rattus norvegicus, UniProt P32214); assay: ASSAY (VIII) binding to the rat calcitonin receptor; settings: Table 7, read-out: rCTR bind IC50
T3 construct: expressed in transfected cells; host or cells: BHK tk'ts 13 (transient, FuGENE 6), membranes
T3 sequence (P32214 25-479 isoform P32214-2 limits assumed): T1 sequence (P32214 25-479 isoform P32214-2 limits assumed)
Method in brief: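 BHK tk′ts 13 cells, transient rat calcitonin receptor transfection; DMEM + 10% FBS; harvest ~48 h post-transfection; membrane prep.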

[5] = Table 7, rat binding selectivity, rCTR IC50 / rAmylin-R IC50
[6] = Table 7a (preferred compounds), rat binding selectivity, rCTR IC50 / rAmylin-R IC50
[7] = Table 5, selectivity, hCTR bind IC50 / hAmylin-R bind IC50
[8] = Table 7, human binding selectivity, included for comparison
[9] = Table 7a (preferred compounds), human binding selectivity, included for comparison
[10] = bistrispropane buffer, pH 6.5, read-out: Solubility pH 6.5 Concentration
[11] = bistrispropane buffer, pH 7.5, read-out: Solubility pH 7.5 Concentration
[12] = bistrispropane buffer, pH 6.0, read-out: Solubility pH 6.0 Concentration
[13] = bistrispropane buffer, pH 7.0, read-out: Solubility pH 7.0 Concentration
[14] = bistrispropane buffer, pH 8.0, read-out: Solubility pH 8.0 Concentration
[15] = glycylglycine buffer, pH 3.0, read-out: Solubility pH 3.0 Concentration
[16] = glycylglycine buffer, pH 4.0, read-out: Solubility pH 4.0 Concentration
[17] = glycylglycine buffer, pH 5.0, read-out: Solubility pH 5.0 Concentration
[18] = ratio of rCTR bind IC50 to rAmylin-R bind IC50
[19] = Table 5a, selectivity, hCTR bind IC50 / hAmylin-R bind IC50
[20] = ratio of human calcitonin receptor binding IC50 to human amylin receptor binding IC50

## CC[C@H](C)[C@H](NC(=O)[C@H](C)NC(=O)CNC(=O)[C@H](Cc1ccccc1)NC(=O)[C@H](CC(N)=O)NC(=O)[C@@H]1CCCN1C(=O)[C@H](CO)NC(=O)[C@H](CO)NC(=O)[C@H](Cc1c[nH]cn1)NC(=O)[C@H](CCCNC(=N)N)NC(=O)[C@H](CC(C)C)NC(=O)[C@H](Cc1ccccc1)NC(=O)[C@H](CCC(=O)O)NC(=O)[C@H](C)NC(=O)[C@H](CC(C)C)NC(=O)[C@H](CCCNC(=N)N)NC(=O)[C@H](CCC(N)=O)NC(=O)[C@@H](NC(=O)[C@H](C)NC(=O)[C@@H]1CSSC[C@H](NC(=O)[C@H](CCCCN)NC(=O)CC[C@H](NC(=O)CCCCCCCCCCCCCCCCCCC(=O)O)C(=O)O)C(=O)N[C@@H](CC(N)=O)C(=O)N[C@@H]([C@@H](C)O)C(=O)N[C@@H](C)C(=O)N[C@@H]([C@@H](C)O)C(=O)N1)[C@@H](C)O)C(=O)N1CCC[C@H]1C(=O)N[C@@H](CO)C(=O)N[C@@H](CO)C(=O)N[C@H](C(=O)N[C@@H](CC(N)=O)C(=O)N[C@H](C(=O)NCC(=O)N[C@@H](CO)C(=O)N[C@@H](Cc1c[nH]cn1)C(=O)N[C@H](C(=O)N[C@@H](Cc1ccc(O)cc1)C(N)=O)[C@@H](C)O)C(C)C)[C@@H](C)O [Example 18] ({C20 diacid-γGlu}-KCNTATCATQRLAEFLRHSSPNFGAIPSSTNVGSHTY-NH2; disulfide 2-7)
[1]; Table 7
  IC50: 0.476 nM
[1]; [5]
  Ratio rCT/rAmylin binding: 27.3
[1]; [6]
  Ratio rCT/rAmylin binding: 27.3
[2]
  IC50: 0.554 nM
[2]; [7]
  Ratio hCT/hAmylin binding: 9.2
[2]; [8]
  Ratio hCT/hAmylin binding: 9.2
[2]; [9]
  Ratio hCT/hAmylin binding: 9.2
[3]; [10]
  solubility at 18 h: ≥ 200 µM
[3]; [11]
  solubility at 18 h: 122 µM (≈ 539 µg/mL)
[3]; [12]
  solubility at 18 h: ≥ 200 µM
[3]; [13]
  solubility at 18 h: 177 µM (≈ 782 µg/mL)
[3]; [14]
  solubility at 18 h: 111 µM (≈ 491 µg/mL)
[3]; [15]
  solubility at 18 h: ≥ 200 µM
[3]; [16]
  solubility at 18 h: ≥ 200 µM
[3]; [17]
  solubility at 18 h: ≥ 200 µM
[4]
  IC50: 13 nM

## CC[C@H](C)[C@H](NC(=O)[C@H](C)NC(=O)CNC(=O)[C@H](Cc1ccccc1)NC(=O)[C@H](CC(N)=O)NC(=O)[C@@H]1CCCN1C(=O)[C@H](CO)NC(=O)[C@H](CO)NC(=O)[C@H](Cc1c[nH]cn1)NC(=O)[C@H](CCCNC(=N)N)NC(=O)[C@H](CC(C)C)NC(=O)[C@H](Cc1ccccc1)NC(=O)[C@H](C)NC(=O)[C@H](C)NC(=O)[C@H](CC(C)C)NC(=O)[C@H](CCCNC(=N)N)NC(=O)[C@H](CCC(N)=O)NC(=O)[C@@H](NC(=O)[C@H](C)NC(=O)[C@@H]1CSSC[C@H](NC(=O)[C@@H](N)CCCCNC(=O)CC[C@H](NC(=O)CCCCCCCCCCCCCCCCCCC(=O)O)C(=O)O)C(=O)N[C@@H](CC(N)=O)C(=O)N[C@@H]([C@@H](C)O)C(=O)N[C@@H](C)C(=O)N[C@@H]([C@@H](C)O)C(=O)N1)[C@@H](C)O)C(=O)N1CCC[C@H]1C(=O)N[C@@H](CO)C(=O)N[C@@H](CO)C(=O)N[C@H](C(=O)N[C@@H](CC(N)=O)C(=O)N[C@H](C(=O)NCC(=O)N1CCC[C@H]1C(=O)N[C@@H](CC(N)=O)C(=O)N[C@H](C(=O)N[C@@H](Cc1ccc(O)cc1)C(N)=O)[C@@H](C)O)C(C)C)[C@@H](C)O [Example 94] (H-K([γGlu-C20 diacid])CNTATCATQRLAAFLRHSSPNFGAIPSSTNVGPNTY-NH2; disulfide 2-7 (inferred))
[1]; Table 7
  IC50: 0.397 nM
[1]; [5]
  Ratio rCT/rAmylin binding: 280.1
[1]; [6]
  Ratio rCT/rAmylin binding: 280.1
[1]; [18]
  Ratio rCT/rAmylin binding: 280.1
[2]
  IC50: 0.148 nM
[2]; [7]
  Ratio hCT/hAmylin binding: 46.3
[2]; [19]
  Ratio hCT/hAmylin binding: 46.3
[2]; Table 5b, selectivity, hCTR bind IC50 / hAmylin-R bind IC50
  Ratio hCT/hAmylin binding: 46.3
[2]; Table 5c, selectivity, hCTR bind IC50 / hAmylin-R bind IC50
  Ratio hCT/hAmylin binding: 46.3
[2]; [8]
  Ratio hCT/hAmylin binding: 46.3
[2]; [9]
  Ratio hCT/hAmylin binding: 46.3
[2]; [20]
  Ratio hCT/hAmylin binding: 46.3
[3]; [10]
  solubility at 18 h: ≥ 200 µM
[3]; [11]
  solubility at 18 h: ≥ 200 µM
[3]; [12]
  solubility at 18 h: ≥ 200 µM
[3]; [13]
  solubility at 18 h: ≥ 200 µM
[3]; [14]
  solubility at 18 h: ≥ 200 µM
[3]; [15]
  solubility at 18 h: ≥ 200 µM
[3]; [16]
  solubility at 18 h: ≥ 200 µM
[3]; [17]
  solubility at 18 h: ≥ 200 µM
[4]
  IC50: 111 nM

## CC[C@H](C)[C@H](NC(=O)[C@H](C)NC(=O)CNC(=O)[C@H](Cc1ccccc1)NC(=O)[C@H](CC(N)=O)NC(=O)[C@@H]1CCCN1C(=O)[C@H](CO)NC(=O)[C@H](CO)NC(=O)[C@H](Cc1c[nH]cn1)NC(=O)[C@H](CCCNC(=N)N)NC(=O)[C@H](CC(C)C)NC(=O)[C@H](Cc1ccccc1)NC(=O)[C@H](CCC(=O)O)NC(=O)[C@H](C)NC(=O)[C@H](CC(C)C)NC(=O)[C@H](CCCNC(=N)N)NC(=O)[C@H](CCC(N)=O)NC(=O)[C@@H](NC(=O)[C@H](C)NC(=O)[C@@H]1CSSC[C@H](NC(=O)[C@@H](N)CCCCNC(=O)CC[C@H](NC(=O)CCCCCCCCCCCCCCCCCCC(=O)O)C(=O)O)C(=O)N[C@@H](CC(N)=O)C(=O)N[C@@H]([C@@H](C)O)C(=O)N[C@@H](C)C(=O)N[C@@H]([C@@H](C)O)C(=O)N1)[C@@H](C)O)C(=O)N1CCC[C@H]1C(=O)N[C@@H](CO)C(=O)N[C@@H](CO)C(=O)N[C@H](C(=O)N[C@@H](CC(N)=O)C(=O)N[C@H](C(=O)NCC(=O)N[C@@H](Cc1c[nH]cn1)C(=O)N[C@@H](CCC(=O)O)C(=O)N[C@H](C(=O)N[C@@H](Cc1ccc(O)cc1)C(N)=O)[C@@H](C)O)C(C)C)[C@@H](C)O [Example 107] (H-K([γGlu-C20 diacid])CNTATCATQRLAEFLRHSSPNFGAIPSSTNVGHETY-NH2; disulfide 2-7 (inferred))
[1]; Table 7
  IC50: 0.958 nM
[1]; [5]
  Ratio rCT/rAmylin binding: 34.6
[1]; [6]
  Ratio rCT/rAmylin binding: 34.6
[1]; [18]
  Ratio rCT/rAmylin binding: 34.6
[2]
  IC50: 0.387 nM
[2]; [7]
  Ratio hCT/hAmylin binding: 11.1
[2]; [19]
  Ratio hCT/hAmylin binding: 11.1
[2]; [8]
  Ratio hCT/hAmylin binding: 11.1
[2]; [9]
  Ratio hCT/hAmylin binding: 11.1
[2]; [20]
  Ratio hCT/hAmylin binding: 11.1
[3]; [10]
  solubility at 18 h: ≥ 200 µM
[3]; [11]
  solubility at 18 h: ≥ 200 µM
[3]; [12]
  solubility at 18 h: ≥ 200 µM
[3]; [13]
  solubility at 18 h: ≥ 200 µM
[3]; [14]
  solubility at 18 h: ≥ 200 µM
[3]; [15]
  solubility at 18 h: ≥ 200 µM
[3]; [16]
  solubility at 18 h: ≥ 200 µM
[3]; [17]
  solubility at 18 h: ≥ 200 µM
[4]
  IC50: 33.1 nM
